According to patent publication US20230096528A1, “Pharmaceutical Composition for Treatment or Prevention of Multiple Inflammatory disorders” (priority 2019, published 2023):

What was measured:
[1] = system: leptin-deficient (ob/ob) mice; test: Denatonium acetate on body weight in leptin-deficient (ob/ob) mice (Example 1); type: in vivo
Protocol: This example describes an in vivo study of denatonium acetate on body weight in leptin-deficient (ob/ob) mice. Adult leptin-deficient mice (homozygote, ob/ob mice) fed with high-fat diet. There was a vehicle control group (15 mice) that were treated with distilled water by gavage BID. […] Body weights and body weight changes were determined at days 1, 3, 7, 10, 14, 21, 24 and 28. Food intake was determined on days 3, 7, 10, 14, 17, 21, […] and 28. On day 28 blood samples were taken for cytokine analysis, HbA1c, HDL, LDL, insulin, and bile acids.

[2] = system: DSS-induced colitis in mice; test: Dextran sulfate sodium (DSS)-induced colitis in mice (Example 3); type: in vivo
Text: This example provides the results of an in vivo study in a dextran sulfate sodium (DSS)-induced colitis in mice model. Inflammatory bowel diseases (IBD), mainly comprising ulcerative colitis and Crohn's Disease, are complex and multifactorial diseases with unknown etiology. To study human IBD mechanistically, a number of murine models of colitis have been developed. These models are tools to decipher underlying mechanisms of IBD pathogenesis as well as to evaluate potential therapeutics. […] Moreover, many existing IBD-approved drugs have been studied in this model to allow a comparison of new potential drug compounds as compared with existing drugs with approved IBD indications. […] mice were divided into 5 groups of 3-10 mice, provided with standard mouse chow diet ad libitum, and housed up to 5 per cage. Dexamethasone 21-phosphate disodium salt (DMS; Alfa Aesar Catalog #J64083-1G, Lot R02F035) (was used as a positive control. Hemoccult kits were obtained from Beckman (Hemoccult SENSA kit). Dextran sodium sulfate (DSS) reagent grade (MPI Catalog #160110, Lot #6046H, MW 36,000-50,000, CAS 9011-18-1) was supplemented in the water of certain groups to induced IBD-like symptoms. On day −3 treatment began prior to DSS delivery. On day 1 all mice were pre-weighed and given fresh 4-5% DSS in water every day for 5 days and water is then given for the remainder of the study to elicit disease. An additional control group was given water (no DSS) for the duration of the study (10 days). Body weight was measured daily, fecal blood status (hemoccult) was measured 3× per week, fecal consistency 3× per week and general health determined daily. Mice were sacrificed on day 10 and serum obtained for cytokine analysis and colon length and weight determined. There were two control groups of water only and DSS without drug treatment. There were two treatment groups at 69.3 mg/kg (n=10) bid and 23.1 mg/kg bid (n=10).

[3] = system: mouse peritoneum macrophages; test: LPS-stimulated mouse peritoneal macrophages, cytokine analysis (Example 5); type: cell-based, mice
Protocol: This example provides an in vivo study to determine the effect of DA on mouse peritoneum macrophages. Peritoneal exudates were obtained from Balb/c female mice by lavage 4 days after an intraperitoneal injection of 4 ml sterile 4% thioglycollate broth. After washing with RPMI 1640 medium, the cell suspensions were centrifuged at 800 g at 4° C. for 5 min. The red blood cells were eliminated by ACK buffer and the cells were washed and resuspended in RPMI 1640 supplemented with 10% inactivated FBS, 10 mM HEPES, 2 mM glutamine, and 100 U/ml penicillin-[…] streptomycin. The peritoneal macrophages were plated in 24 well tissue culture plate (2×10^5 cells/mL/well) at 37° C. in a 5% CO2 humidified atmosphere. Macrophages were precultured in serum-free RPMI 1640 medium for 24 h to reduce mitogenic effects. Macrophages were pretreated with various concentrations of DA for 1 h prior to LPS treatment and stimulated with LPS (100 ng/mL) for 24 h. Treatment groups were: [table]

[4] = system: diet-induced (DIO) mice; test: Body weight study in diet-induced (DIO) mice (Example 9); type: in vivo, C57BL/6NTac mice; conditions: DA 92.4 mg/kg gavage BID, vs vehicle
[5] = system: healthy mouse; test: Cytokine profile and routes of administration in healthy mouse (Example 6); conditions: healthy mice
[6] = 23.1 mg/kg BID gavage, vs vehicle
[7] = 23.1 mg/kg BID gavage, vs vehicle, no statistically significant difference
[8] = high-dose DA, no significant difference

## CC(=O)[O-].CC[N+](CC)(CC(=O)Nc1c(C)cccc1C)Cc1ccccc1 [DA, denatonium acetate]
[1]; [6]
  Blood HDL level at day 28: statistically significant decrease
  Blood HbA1c levels at day 28: no statistically significant difference
  Blood LDL cholesterol levels at day 28: no statistically significant difference
  Blood bile acid levels at day 28: no statistically significant difference
  Blood insulin levels at day 28: no statistically significant difference
  Blood total cholesterol level (LDL plus HDL) at day 28: almost significant decrease
  Body weight change at day 28: no statistically significant difference
  Cumulative food consumption over 28 days: no statistically significant difference
  Fasting blood glucose level at day 28: no statistically significant difference
  GM-CSF in blood at day 28: significant decreases
  IFNγ in blood at day 28: significant decreases
  IL-5 in blood at day 28: significant decreases
  IL-10 in blood at day 28: significant decreases
  IL-12 in blood at day 28: significant decreases
  KC/CXCL1 in blood at day 28: significant decreases
  M-CSF in blood at day 28: significant decreases
[1]; [7]
  Change in granulocyte number, pre-dose to day 28: trend of increasing change
  Change in lymphocyte and white blood cell numbers and percentage, pre-dose to day 28: trend of increasing change
  Change in monocyte number and percentage, pre-dose to day 28: trend of increasing change
[1]; 28 days, DA vs vehicle
  Average daily individual food intake: no difference
[1]; compared to vehicle-treated controls
  Body weight after treatment for 28 days: noticeable body weight decrease
[2]; 69.3 mg/kg BID, vs vehicle
  Body weight at day 10: significant effect against DSS-induced body weight loss
[2]; DA treatment
  Combined fecal score during the study period: significant main effect
  Fecal consistency score during the study period: significant main effect
  Fecal occult blood scores during the study period: significant main effect
[2]; [8]
  Colon length at day 10: could counteract DSS-induced decrease
  Colon weight at day 10: could counteract DSS-induced decrease
[2]; high-dose DA, no significant effect
  Spleen weight at day 10: trend to counteract DSS-induced spleen weight loss
[3]; DA 1 μM
  GM-CSF: Significance @24 hour LPS incubation: No sig
  IFNγ: Significance @24 hour LPS incubation: No sig
  IL-1α: Significance @24 hour LPS incubation: No sig
  IL-1β: Significance @24 hour LPS incubation: No sig
  IL-2: Significance @24 hour LPS incubation: No sig
  IL-4: Significance @24 hour LPS incubation: No sig
  IL-6: Significance @24 hour LPS incubation: No sig
  IL-7: Significance @24 hour LPS incubation: No sig
  IL-10: Significance @24 hour LPS incubation: No sig
  IL-12 (p70): Significance @24 hour LPS incubation: No sig
  IL-13: Significance @24 hour LPS incubation: No sig
  IL-17A: Significance @24 hour LPS incubation: No sig
  KC/CXCL1: Significance @24 hour LPS incubation: No sig
  LIX: Significance @24 hour LPS incubation: No sig
  MCP-1: Significance @24 hour LPS incubation: No sig
  MIP-2: Significance @24 hour LPS incubation: No sig
  TNF-α: Significance @24 hour LPS incubation: No sig
[3]; DA 10 μM
  GM-CSF: Significance @24 hour LPS incubation: no sig
  IFNγ: Significance @24 hour LPS incubation: no sig
  IL-1α: Significance @24 hour LPS incubation: no sig
  IL-1β: Significance @24 hour LPS incubation: no sig
  IL-2: Significance @24 hour LPS incubation: no sig
  IL-4: Significance @24 hour LPS incubation: no sig
  IL-6: Significance @24 hour LPS incubation: no sig
  IL-7: Significance @24 hour LPS incubation: no sig
  IL-10: Significance @24 hour LPS incubation: no sig
  IL-12 (p70): Significance @24 hour LPS incubation: no sig
  IL-13: Significance @24 hour LPS incubation: no sig
  IL-17A: Significance @24 hour LPS incubation: no sig
  KC/CXCL1: Significance @24 hour LPS incubation: no sig
  LIX: Significance @24 hour LPS incubation: no sig
  MCP-1: Significance @24 hour LPS incubation: no sig
  MIP-2: Significance @24 hour LPS incubation: no sig
  TNF-α: Significance @24 hour LPS incubation: no sig
[3]; DA 100 μM
  GM-CSF: Significance @24 hour LPS incubation: no sig
  IFNγ: Significance @24 hour LPS incubation: no sig
  IL-1α: Significance @24 hour LPS incubation: no sig
  IL-1β: Significance @24 hour LPS incubation: no sig
  IL-2: Significance @24 hour LPS incubation: no sig
  IL-4: Significance @24 hour LPS incubation: no sig
  IL-6: Significance @24 hour LPS incubation: no sig
  IL-7: Significance @24 hour LPS incubation: no sig
  IL-10: Significance @24 hour LPS incubation: no sig
  IL-12 (p70): Significance @24 hour LPS incubation: no sig
  IL-13: Significance @24 hour LPS incubation: no sig
  IL-17A: Significance @24 hour LPS incubation: no sig
  KC/CXCL1: Significance @24 hour LPS incubation: no sig
  LIX: Significance @24 hour LPS incubation: no sig
  MCP-1: Significance @24 hour LPS incubation: no sig
  MIP-2: Significance @24 hour LPS incubation: no sig
  TNF-α: Significance @24 hour LPS incubation: no sig
[4]
  Daily food intake at Day 14: significantly reduced
[5]; iv bolus QD, 1 mg/kg and 3 mg/kg (either iv dose)
  Biomarker (cytokine) effects after iv dosing: no biomarker (cytokine) effects
[5]; seen only with iv administration (1 and 3 mg/kg QD)
  Side effects by route of administration: toxic side effects
